For 28 compounds, IC50 results are on record in patent US8729082B2, “Substituted imidazoquinoxalines” (Bayer Intellectual Property GmbH, priority 2009, dated 2014).

The term IC50 denotes the concentration that gives 50% inhibition.

The target in this assay is T1, human kinase Mps-1 (Homo sapiens, UniProt P33981).
T1 construct: N-terminally GST-tagged human full length recombinant Mps-1 kinase; purchased Invitrogen, Karslruhe, Germany PV4071
T1 sequence (P33981 1-857): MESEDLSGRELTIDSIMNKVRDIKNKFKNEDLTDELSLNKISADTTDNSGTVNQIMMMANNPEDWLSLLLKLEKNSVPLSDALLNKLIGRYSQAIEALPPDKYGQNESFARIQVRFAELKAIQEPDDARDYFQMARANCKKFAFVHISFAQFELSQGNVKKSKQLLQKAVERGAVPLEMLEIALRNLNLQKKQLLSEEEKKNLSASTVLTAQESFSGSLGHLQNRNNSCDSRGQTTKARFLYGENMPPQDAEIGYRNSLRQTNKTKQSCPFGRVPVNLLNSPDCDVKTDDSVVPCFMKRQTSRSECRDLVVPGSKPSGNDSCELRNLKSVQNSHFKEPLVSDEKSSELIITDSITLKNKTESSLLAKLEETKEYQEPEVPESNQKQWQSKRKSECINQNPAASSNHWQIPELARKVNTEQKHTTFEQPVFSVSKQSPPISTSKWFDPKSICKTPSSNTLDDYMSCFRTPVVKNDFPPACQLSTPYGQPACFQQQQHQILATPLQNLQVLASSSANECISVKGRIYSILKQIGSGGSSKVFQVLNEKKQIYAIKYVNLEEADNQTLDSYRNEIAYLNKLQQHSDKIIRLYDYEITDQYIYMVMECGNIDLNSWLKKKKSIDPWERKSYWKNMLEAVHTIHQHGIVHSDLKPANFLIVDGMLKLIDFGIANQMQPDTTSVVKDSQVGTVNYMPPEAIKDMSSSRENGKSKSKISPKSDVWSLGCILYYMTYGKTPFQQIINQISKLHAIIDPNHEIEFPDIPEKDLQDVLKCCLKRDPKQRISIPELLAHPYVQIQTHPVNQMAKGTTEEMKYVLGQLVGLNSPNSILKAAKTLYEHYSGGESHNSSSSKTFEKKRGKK
Put plainly: Mps-1 kinase assay (HTRF). The assay is classed as biochemical. The conditions noted are these: lowATP; mean; read-out: Mps1 lowATP mean IC50. The method, boiled down:
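HTRF readout: EDTA-stopped reactions incubated 1 h with europium anti-phospho(Ser/Thr) antibody and streptavidin-XLent, emission ratio 665/620 nm after 350 nm excitation. Kinase step: compound pre-bound 15 min to ~1 nM GST-Mps-1, then 60 min at 22 °C with ATP and biotin-peptide substrate; inhibition scaled between no-inhibitor (0%) and no-enzyme (100%) controls.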
On to `O=C(NC1CC1)c1ccc(-c2cnc3c(NCCCCO)nc4ccc(F)cc4n23)cc1Cl` [Example 2-79, 2-chloro-N-cyclopropyl-4-{8-fluoro-4-[(4-hydroxybutyl)amino[imidazo]1,2-a]quinoxalin-1-yl}benzamide], for which the half-inhibitory concentration (IC50) was 1.33 µM.
With `O=C(NC1CC1)c1ccc(-c2cnc3c(NCCCO)nc4ccc(F)cc4n23)cc1Cl` [Example 2-80, 2-chloro-N-cyclopropyl-4-{8-fluoro-4-[(3-hydroxypropyl)amino]imidazo[1,2-a]quinoxalin-1-yl}benzamide], the IC50 was 3.04 µM.
Regarding `O=C(NC1CC1)c1ccc(-c2cnc3c(NCc4cccnc4)nc4ccc(F)cc4n23)cc1Cl` [Example 2-81, 2-chloro-N-cyclopropyl-4-{8-fluoro-4-[(pyridin-3-ylmethyl)amino]imidazo[1,2-a]quinoxalin-1-yl}benzamide], the IC50 stood at 1.42 µM.
As to `O=C(NC1CC1)c1ccc(-c2cnc3c(NCc4ccncc4)nc4ccc(F)cc4n23)cc1Cl` [Example 2-82, 2-chloro-N-cyclopropyl-4-{8-fluoro-4-[(pyridin-4-ylmethyl)amino]imidazo[1,2-a]quinoxalin-1-yl}benzamide], the IC50 worked out at 1.09 µM.
On to `COCCCNc1nc2ccc(F)cc2n2c(-c3ccc(C(=O)NC4CC4)c(Cl)c3)cnc12` [Example 2-83, 2-chloro-N-cyclopropyl-4-{8-fluoro-4-[(3-methoxypropyl)amino]imidazo[1,2-a]quinoxalin-1-yl}benzamide], for which the IC50 came out at 6.7 µM.
As to `CC(C)(C)OC(=O)NCCCNc1nc2ccc(F)cc2n2c(-c3ccc(C(=O)NC4CC4)c(Cl)c3)cnc12` [Example 2-84, tert-butyl [3-({1-[3-chloro-4-(cyclopropylcarbamoyl)phenyl]-8-fluoroimidazo[1,2-a]quinoxalin-4-yl}amino)propyl]carbamate], the IC50 was determined as 2.88 µM.
With `Cn1nccc1CNc1nc2ccc(F)cc2n2c(-c3ccc(C(=O)NC4CC4)c(Cl)c3)cnc12` [Example 2-85, 2-chloro-N-cyclopropyl-4-(8-fluoro-4-{[(1-methyl-1H-pyrazol-5-yl)methyl]amino}imidazo[1,2-a]quinoxalin-1-yl)benzamide] the figure was 0.761 µM; with `Cn1cc(CNc2nc3ccc(F)cc3n3c(-c4ccc(C(=O)NC5CC5)c(Cl)c4)cnc23)cn1` [Example 2-86, 2-chloro-N-cyclopropyl-4-(8-fluoro-4-{[(1-methyl-1H-pyrazol-4-yl)methyl]amino}imidazo[1,2-a]quinoxalin-1-yl)benzamide], 1.64 µM; with `CCCNc1nc2cc(F)c(F)cc2n2c(-c3ccc(C(=O)NC4CC4)cc3)cnc12` [Example 2-88, N-cyclopropyl-4-[7,8-difluoro-4-(propylamino)imidazo[1,2-a]quinoxalin-1-yl]benzamide], 0.0286 µM.
As to `O=C(NC1CC1)c1ccc(-c2cnc3c(NCCO)nc4cc(F)c(F)cc4n23)cc1` [Example 2-89, N-cyclopropyl-4-{7,8-difluoro-4-[(2-hydroxyethyl)amino]imidazo[1,2-a]quinoxalin-1-yl}benzamide], the IC50 was determined as 0.286 µM.
`O=C(NC1CC1)c1ccc(-c2cnc3c(NCCCN4CCOCC4)nc4cc(F)c(F)cc4n23)cc1` [Example 2-90, N-cyclopropyl-4-(7,8-difluoro-4-{[3-(morpholin-4-yl)propyl]amino}imidazo[1,2-a]quinoxalin-1-yl)benzamide]: the IC50 was determined as 0.438 µM.
As to `CC(C)CCNc1nc2cc(F)c(F)cc2n2c(-c3ccc(C(=O)NC4CC4)cc3)cnc12` [Example 2-91, N-cyclopropyl-4-{7,8-difluoro-4-[(3-methylbutyl)amino]imidazo[1,2-a]quinoxalin-1-yl}benzamide], the IC50 was found to be 0.0555 µM.
As to `O=C(NC1CC1)c1ccc(-c2cnc3c(NCc4cccc(F)c4)nc4cc(F)c(F)cc4n23)cc1` [Example 2-92, N-cyclopropyl-4-{7,8-difluoro-4-[(3-fluorobenzyl)amino]imidazo[1,2-a]quinoxalin-1-yl}benzamide], the IC50 stood at 0.143 µM.
With `O=C(NC1CC1)c1ccc(-c2cnc3c(NCCCN4CCCC4=O)nc4cc(F)c(F)cc4n23)cc1` [Example 2-93, N-cyclopropyl-4-(7,8-difluoro-4-{[3-(2-oxopyrrolidin-1-yl)propyl]amino}imidazo[1,2-a]quinoxalin-1-yl)benzamide] the figure was 0.382 µM.
As to `COCCNc1nc2cc(F)c(F)cc2n2c(-c3ccc(C(=O)NC4CC4)cc3)cnc12` [Example 2-94, N-cyclopropyl-4-{7,8-difluoro-4-[(2-methoxyethyl)amino]imidazo[1,2-a]quinoxalin-1-yl}benzamide], the IC50 is 0.161 µM.
With `O=C(NC1CC1)c1ccc(-c2cnc3c(NCc4ccc(F)cc4)nc4cc(F)c(F)cc4n23)cc1` [Example 2-95, N-cyclopropyl-4-{7,8-difluoro-4-[(4-fluorobenzyl)amino]imidazo[1,2-a]quinoxalin-1-yl}benzamide] the figure was 0.0758 µM; with `O=C(NC1CC1)c1ccc(-c2cnc3c(NCCCCO)nc4cc(F)c(F)cc4n23)cc1` [Example 2-96, N-cyclopropyl-4-{7,8-difluoro-4-[(4-hydroxybutyl)amino]imidazo[1,2-a]quinoxalin-1-yl}benzamide], 0.0595 µM.
`O=C(NC1CC1)c1ccc(-c2cnc3c(NCC(F)(F)F)nc4cc(F)c(F)cc4n23)cc1` [Example 2-97, N-cyclopropyl-4-{7,8-difluoro-4-[(2,2,2-trifluoroethyl)amino]imidazo[1,2-a]quinoxalin-1-yl}benzamide]: the IC50 was found to be 0.0937 µM.
With `O=C(NC1CC1)c1ccc(-c2cnc3c(NCc4cccs4)nc4cc(F)c(F)cc4n23)cc1` [Example 2-98, N-cyclopropyl-4-{7,8-difluoro-4-[(thiophen-2-ylmethyl)amino]imidazo[1,2-a]quinoxalin-1-yl}benzamide], the IC50 came to 0.0622 µM.
With `CCNc1nc2cc(F)c(F)cc2n2c(-c3ccc(C(=O)NC4CC4)cc3)cnc12` [Example 2-99, N-cyclopropyl-4-[4-(ethylamino)-7,8-difluoroimidazo[1,2-a]quinoxalin-1-yl]benzamide] the figure was 0.0598 µM; with `O=C(NC1CC1)c1ccc(-c2cnc3c(NCCCO)nc4cc(F)c(F)cc4n23)cc1` [Example 2-100, N-cyclopropyl-4-{7,8-difluoro-4-[(3-hydroxypropyl)amino]imidazo[1,2-a]quinoxalin-1-yl}benzamide], 0.0753 µM; with `CCCCNc1nc2cc(F)c(F)cc2n2c(-c3ccc(C(=O)NC4CC4)cc3)cnc12` [Example 2-101, 4-[4-(butylamino)-7,8-difluoroimidazo[1,2-a]quinoxalin-1-yl]-N-cyclopropylbenzamide], 0.0283 µM.
For `CC(=O)NCCNc1nc2cc(F)c(F)cc2n2c(-c3ccc(C(=O)NC4CC4)cc3)cnc12` [Example 2-102, 4-(4-{[2-(acetylamino)ethyl]amino}-7,8-difluoroimidazo[1,2-a]quinoxalin-1-yl)-N-cyclopropylbenzamide], the IC50 turned out to be 0.584 µM.
Regarding `O=C(NC1CC1)c1ccc(-c2cnc3c(NCCCn4ccnc4)nc4cc(F)c(F)cc4n23)cc1` [Example 2-103, N-cyclopropyl-4-(7,8-difluoro-4-{[3-(1H-imidazol-1-yl)propyl]amino}imidazo[1,2-a]quinoxalin-1-yl)benzamide], the IC50 was determined as 0.229 µM.
Take `O=C(NC1CC1)c1ccc(-c2cnc3c(NCC4CC4)nc4cc(F)c(F)cc4n23)cc1` [Example 2-104, N-cyclopropyl-4-{4-[(cyclopropylmethyl)amino]-7,8-difluoroimidazo[1,2-a]quinoxalin-1-yl}benzamide]: the IC50 turned out to be 0.0341 µM.
With `O=C(NC1CC1)c1ccc(-c2cnc3c(NCc4ccco4)nc4cc(F)c(F)cc4n23)cc1` [Example 2-105, N-cyclopropyl-4-{7,8-difluoro-4-[(furan-2-ylmethyl)amino]imidazo[1,2-a]quinoxalin-1-yl}benzamide] the figure was 0.0528 µM; with `CC(C)CNc1nc2cc(F)c(F)cc2n2c(-c3ccc(C(=O)NC4CC4)cc3)cnc12` [Example 2-106, N-cyclopropyl-4-{7,8-difluoro-4-[(2-methylpropyl)amino]imidazo[1,2-a]quinoxalin-1-yl}benzamide], 0.0245 µM.
On to `NC(=O)CCNc1nc2cc(F)c(F)cc2n2c(-c3ccc(C(=O)NC4CC4)cc3)cnc12` [Example 2-107, 4-{4-[(3-amino-3-oxopropyl)amino]-7,8-difluoroimidazo[1,2-a]quinoxalin-1-yl}-N-cyclopropylbenzamide], for which the IC50 was found to be 0.233 µM.
